Data set [1] concerns the target CBFβ binding to the RUNX1 Runt domain (Homo sapiens (Human), UniProt Q13951). The data set is described as follows: FRET assay, inhibition of CBFβ binding to the RUNX1 Runt domain. To be noted: inhibition of wild-type CBFβ binding to the RUNX1 Runt domain; NA = not active. From the text: Fluorescence Resonance Energy Transfer (FRET) Assay:
As described in U.S. Pat. No. 8,748,618 and published PCT application WO2010/132684, a FRET assay can be used to effectively monitor the inhibition of CBF binding to the Runt domain of RUNX proteins (as well as for CBFβ-SMMHC binding to the Runt domain of RUNX proteins). For the assay, the green fluorescent protein derivative Cerulean is fused to the N-terminus of the Runt domain and the green fluorescent protein derivative Venus to the N-terminus of CBFβ (Gorczynski, M. J., J. Grembecka, et al. (2007), “Allosteric inhibition of the protein-protein interaction between the leukemia-associated proteins Runx1 and CBFbeta.” Chem Biol 14(10): 1186-97), or to CBFβ-SMMHC (Illendula, A. et al. Chemical biology. A small-molecule inhibitor of the aberrant transcription factor CBFbeta-SMMHC delays leukemia in mice. Science 347, 779-784, doi:10.1126/science.aaa0314 (2015)). The ratio of the emission intensities at 525 nm and 474 nm, measured after excitation at 433 nm, was used as the readout in this assay. The dynamic range for the FRET assay was determined by adding a 30-fold excess of untagged CBFβ (or CBFβ-SMMHC) to the assay and the associated change in the FRET ratio was defined as 100% inhibition.

For data set [2], the target named is binding of CBFβ to RUNX1 in SEM cells (Homo sapiens (Human), UniProt Q13951). The experiment in a line: Co-immunoprecipitation of CBFβ with RUNX1 in SEM cells. In kind it is cell-based. To be noted: 10 μM, 6 hours. As to the method:
To test whether the wild-type CBFβ Inhibitors can disrupt the binding of CBFβ to RUNX1 in cells, co-immunoprecipitation experiments were performed in the SEM cell line. Co-immunoprecipitation assays of lysates from […] SEM cells were treated with Al-4-88^1, Al-10-47, Al-10-104, Al-12-126 and Al-14-91 at 10 μM for 6 hours. RUNX1-bound CBFβ protein levels and immunoprecipitated RUNX1 are shown on the top panel of FIG. 2A. Quantification of RUNX1 bound CBFβ is shown on the bottom graph.

Data set [3] can be described thus: Aqueous solubility in 0.25% DMSO by NMR spectroscopy. In kind it is physicochemical. To be noted: aqueous, kinetic from dmso stock; 0.25% DMSO, NMR spectroscopy; read-out: aqueous solubility. As to the method: Al-10-104, Al-12-126, and Al-14-91 were all soluble at concentrations above 100 μM. […] As the Runt domain is highly conserved among all three RUNX family members, we would expect to see similar effects on binding to RUNX2 or RUNX3. Therefore, the action of the inhibitors will likely affect the activity of all three RUNX family members.

Data set [4] in a line: Sedative effects and tolerability in mice after IP administration. In kind it is in vivo. The following applies: intraperitoneal (IP) injection. From the text:
“NA” indicates not active. […] Reasoning that this effect depended on the ability of the compound to cross the blood brain barrier (BBB), compounds Al-12-126 and Al-14-91 have appended morpholine ring substituents to the 5 position of the pyridine ring to increase the polarity of the compounds and thereby limit BBB penetration.

For data set [5], the system named is inducible Runx1 (iRx) ES cells. The data set is described as follows: Inducible Runx1 (iRx) ES cell differentiation system, FACS. The class given is cell-based. As to the method: FIG. 3A is a schematic diagram representing the inducible Runx1 (iRx) ES cell differentiation system. ES cells were allowed to form embryoid bodies (EB) in IVD culture media and hemangioblast Flk1 positive cells were sorted and seeded into blast culture media. After 2 days, a second Flk1 sort was performed and Flk1 positive cells were cultured in hemogenic endothelium culture conditions. In the absence of doxycycline (−dox), Runx1 is absent and cells cannot progress from the HE1 stage of development. In the presence of doxycycline (+dox), Runx1 is expressed and differentiation progresses, resulting in the formation of CD41+ve/c-kit+ve floating progenitors.
FIG. 3C provides representative FACS histograms showing staining of the surface markers CD41 and c-kit in cells treated with the compounds and in the presence or absence of doxycycline, as indicated.
FIG. 3D provides representative FACS histograms showing staining of Annexin V and Propidium Iodide (PI) in cells treated with compounds Al-10-104 and Al-4-88 in the absence or presence of doxycycline, as indicated.

A further data set concerns 11 leukemia cell lines. The experiment in a line: Viability of a panel of 11 leukemia cell lines. The class given is cell-based. The following applies: 48 hours of treatment. The text has this: Compounds Al-4-88, Al-4-57, Al-10-47, Al-10-104, and Al-14-91 were screened against a panel of 11 leukemia cell lines with varying genotypes.
The viability is represented as the percent DAPI negative cells relative to DMSO control. Each symbol/color in the graphs of FIG. 4 represent an individual cell line. The symbol represents the mean of independent replicates and the error bars represent the SEM. The table indicates the morphology, type of leukemia, and known mutations for each of the 11 cell lines.

A further data set concerns T-ALL cell lines. The data set is described as follows: Apoptosis in T-ALL cell lines. In kind it is cell-based, human.
Another data set relates to MLL-AF4 leukemia cells. The experiment in a line: Cell death of MLL-AF4 leukemia cells. The class given is cell-based, human.
Data set [6] deals with BEAS-2B normal lung cells. The data set is described as follows: MTT growth assay, BEAS-2B cells. The class given is cell-based. To be noted: 10 μM, 72 hrs. As to the method:
Activity of Al-10-104 was tested using several lung cancer cell lines and one immortalized, non-transformed lung cell line. […] Data for the squamous cell carcinoma of the lung cell line H520 and the immortalized normal lung epithelial cell line BEAS-2B are shown in FIG. 10.
H520 cells were cultured in RPMI 1640 medium, supplemented with fetal bovine serum (10% final concentration), Hepes (1%), and sodium priruvate (1%). The MTT assay used 4×10^5/ml cells. BEAS-2B cells were cultured in DMEM medium with fetal bovine serum (10% final concentration). The MTT assay for the BEAS-2B cell line was performed using 3.5×10^5/ml cells.
Al-4-88 had no effect on either cell line.
For orientation: Tetrazolium dyes change colour on reduction, which living cells bring about.

Data set [7] concerns OVCAR8 ovarian cancer cells. The experiment in a line: CellTiter-Glo viability assay, OVCAR8. In kind it is cell-based. To be noted: Homo sapiens, OVCAR-8, OVCAR8, 72 hours. As to the method:
OVCAR8 cells were grown in RPMI 1640 supplemented with 10% Fetal bovine serum and 1% antibiotics. OVCAR4 cells were grown in RPMI 1640 supplemented with 20% fetal bovine serum and 1% antibiotics. Cells growing at approximately 70% confluency were trypsinized and 2500 cells per well were re-plated in opaque bottomed 96-well plates.
24 hours after plating, chemical compounds diluted in DMSO were mixed with cell growth media and added to cells. Compounds mixed with media were made at 10× concentration. Cells treated with compounds were incubated for 72 hours in a humidified incubator at 37° C. supplemented with 5% CO2. Percentage of cells viable after 72 hours was determined by CellTitler-Glo according to the manufacturer's instructions. Data analysis was performed using GraphPad 5.0.
In the graph, the ordinate represents % inhibition and the abscissa represents the log value of the concentration of the compound.
A general note: ATP-based viability assays read luminescence as a measure of living cells.

binding of CBFβ to RUNX1 in SEM cells, sequence (Q13951 whole entry): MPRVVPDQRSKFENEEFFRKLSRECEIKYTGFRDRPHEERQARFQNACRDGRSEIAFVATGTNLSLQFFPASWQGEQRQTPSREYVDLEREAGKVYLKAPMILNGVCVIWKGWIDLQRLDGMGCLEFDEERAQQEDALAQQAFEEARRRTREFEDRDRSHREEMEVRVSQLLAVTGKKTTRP
CBFβ binding to the RUNX1 Runt domain, sequence (Q13951 1-141): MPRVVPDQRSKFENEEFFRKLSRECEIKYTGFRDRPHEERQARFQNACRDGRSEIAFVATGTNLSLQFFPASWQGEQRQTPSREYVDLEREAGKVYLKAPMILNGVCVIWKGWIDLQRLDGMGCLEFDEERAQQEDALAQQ

One may read the IC50 as the concentration at which inhibition is half-maximal. Lower therefore signals greater potency in that assay. As a reminder, the solubility is the dissolved amount per volume that the medium holds. In the case of `COc1cccnc1-c1nc2cc(OC(F)(F)F)ccc2[nH]1` [Al-10-104], the IC50 in data set [1] worked out at 2.65 ± 0.18 µM; in data set [7], 4.84 µM. Also, the “RUNX1-bound CBFβ (co-immunoprecipitation)” value in data set [2] is recorded as “reduction in binding”. Also, in data set [3], the solubility was > 100 µM. For the same compound, the sedative effects result in data set [4] is on record as “significant sedative effects that were lethal at high doses”. The “percentage of cells expressing c-kit and CD41” value in data set [5] (10 μM, in the presence of doxycycline) was “reduced”. In data set [5] (adherent cells, absence or presence of doxycycline), the “apoptosis (Annexin V and PI staining)” value is “apoptosis is not increased”. The “percent viability (DAPI negative cells relative to DMSO)” value with 11 leukemia cell lines is listed as “significant inhibition of the majority of the cell lines”. In the data set on T-ALL cell lines, the apoptosis entry is “induced apoptosis”. The cell death entry in the data set on MLL-AF4 leukemia cells was “induced cell death”. Further, the “cell growth (MTT assay)” value in data set [6] is “no effect”.

(Values after US10562890B2, “Cancer therapeutics” (UNIVERSITY OF VIRGINIA PATENT FOUNDATION, priority 2014, dated 2020).)
